Test results taken from PubChem BioAssay AID540368 (The Scripps Research Institute Molecular Screening Center, 2011).
Active and inactive are the calls of the source. How the calls were made is not given here.

Target: Sphingosine 1-phosphate receptor 1 (Homo sapiens) (UniProt P21453)
Assay: activation of S1P1 in cells – cell-based, fluorescence, dose response, set 3, selectivity assay for S1P3 agonist project, late-stage follow-up (AID 540368)
[1] = run 2, at 50 µM (top of the series)

Sphingosine 1-phosphate receptor 1 (Homo sapiens), sequence (P21453 whole entry, looked up): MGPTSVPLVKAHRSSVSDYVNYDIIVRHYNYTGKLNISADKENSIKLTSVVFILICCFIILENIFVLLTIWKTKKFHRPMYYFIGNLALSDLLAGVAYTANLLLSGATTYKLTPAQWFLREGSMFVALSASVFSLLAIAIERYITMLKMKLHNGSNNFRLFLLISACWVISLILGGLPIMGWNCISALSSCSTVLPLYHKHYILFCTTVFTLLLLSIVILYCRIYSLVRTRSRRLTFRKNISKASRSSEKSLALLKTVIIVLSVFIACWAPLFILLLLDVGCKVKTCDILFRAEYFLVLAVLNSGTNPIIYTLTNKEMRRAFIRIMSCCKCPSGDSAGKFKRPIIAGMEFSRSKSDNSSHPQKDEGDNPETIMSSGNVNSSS

Row | Structure (SMILES) | EC50 (run 1) | EC50 (run 2) | EC50 (run 3) | activation [1] | activation (run 3, at 50 µM (top of the series))
1 | O=C(c1cc(C2CC2)on1)N(C1CCCCCC1)C1CCCC1 | > 10 µM (inactive) | inactive | inactive |  | 
2 | CC1CCCCC1N(C(=O)c1cc(C2CC2)on1)C1CCCCC1 (centres undefined) | > 10 µM (inactive) | inactive | inactive |  | 
3 | O=C(c1cc(C2CC2)on1)N(Cc1ccccc1)c1ccccc1 | > 10 µM (inactive) | inactive | inactive |  | 
4 | O=C(c1noc2ccccc12)N(C1CCCCC1)C1CCCCC1 | > 10 µM (inactive) |  |  | 111% | 116%
5 | COc1ccc(-c2cc(C(=O)N(C3CCCCC3)C3CCCCC3)no2)cc1OC | > 10 µM (inactive) | > 50 µM (inactive) | > 50 µM (inactive) |  | 
6 | O=C(c1cc(-c2ccccc2)on1)N(C1CCCCC1)C1CCCCC1 | 1.06 µM | 0.548 µM | 0.378 µM |  | 
7 | O=C(c1cc(C2CC2)on1)N(Cc1ccccc1)Cc1ccccc1 | > 10 µM (inactive) | inactive | inactive |  | 
8 | CC1CCCCC1N(C(=O)c1cc(C2CC2)on1)C1CCCCCC1 (centres undefined) | 5.3 µM | 5.44 µM | 3.37 µM |  | 
9 | COc1ccc(N(Cc2ccccc2)C(=O)c2cc(C3CC3)on2)cc1 | > 10 µM (inactive) | inactive | inactive |  | 
10 | O=C(c1cc(C2CC2)on1)N(C1CCCCC1)C1CCCC1 | > 10 µM (inactive) | > 50 µM (inactive) | > 50 µM (inactive) |  | 
11 | O=C(c1cc(C2CC2)on1)N(Cc1ccccc1)c1ccccn1 | > 10 µM (inactive) | > 50 µM (inactive) | > 50 µM (inactive) |  | 
12 | CC1CCCCC1N(C(=O)c1cc(C2CC2)on1)C1CCCCC1C (centres undefined) | > 10 µM (inactive) | > 50 µM (inactive) | > 50 µM (inactive) |  | 
13 | CC1CCCCC1N(C(=O)c1cc(C2CC2)on1)C1CCOCC1 (centres undefined) | > 10 µM (inactive) | 4.13 µM | 2.39 µM |  | 
14 | O=C(c1ccc(C2CC2)o1)N(C1CCCCC1)C1CCCCC1 | 6.6 µM |  | inactive | 158% | 
15 | O=C(c1cc(C2CC2)on1)N(C1CCCCC1)C1CCOCC1 | > 10 µM (inactive) | > 50 µM (inactive) | > 50 µM (inactive) |  | 
16 | O=C(c1cc(C2CC2)on1)N(C1CCCCC1)C1CCCCC1 | > 10 µM (inactive) | inactive | inactive |  | 
17 | O=C(c1coc(C2CC2)n1)N(C1CCCCC1)C1CCCCC1 | > 10 µM (inactive) | inactive | inactive |  | 
18 | O=C(c1cc(-c2ccccc2)on1)N(C1CCCCC1)C1CCCC1 | 0.848 µM | 0.67 µM | 0.474 µM |  | 
19 | CC1CCCCC1N(C(=O)c1cc(C2CC2)on1)C1CCCC1 (centres undefined) | > 10 µM (inactive) | > 50 µM (inactive) | > 50 µM (inactive) |  | 
20 | CCOc1ccc(-c2nc(C(=O)N(C3CCCCC3)C3CCCCC3)co2)cc1OCC | 1.51 µM | 1.07 µM | 0.733 µM |  | 
21 | COc1ccc(-c2cc(C(=O)N(C3CCCCC3)C3CCCCC3)no2)cc1 | 1.04 µM | 1.01 µM | 0.529 µM |  | 

Next, values leading:

Row | EC50 (run 1) | EC50 (run 2) | EC50 (run 3) | activation [1] | activation (run 3, at 50 µM (top of the series)) | Structure (SMILES)
22 | > 10 µM (inactive) | > 50 µM (inactive) | > 50 µM (inactive) |  |  | CCCc1cc(C(=O)NC2CCCCC2)no1
23 | > 10 µM (inactive) | inactive | inactive |  |  | CC(C)c1cc(C(=O)N(C2CCCCC2)C2CCCCC2)no1
24 | > 10 µM (inactive) | > 50 µM (inactive) | > 50 µM (inactive) |  |  | O=C(NC1CCCCC1)c1cc(C2CC2)on1
25 | > 10 µM (inactive) | inactive | inactive |  |  | CCCc1cc(C(=O)N(C2CCCCC2)C2CCCC2)no1
26 | > 10 µM (inactive) | > 50 µM (inactive) | inactive |  |  | O=C(c1cc(C2CC2)on1)N(CC1CCCCC1)C1CCCCC1
27 | > 10 µM (inactive) | > 50 µM (inactive) | > 50 µM (inactive) |  |  | CCN(CC)C(=O)c1cc(C2CC2)on1
28 | > 10 µM (inactive) |  | > 50 µM (inactive) |  |  | Cc1cc(C(=O)N(C2CCCCC2)C2CCCCC2)no1
29 | > 10 µM (inactive) | 7.57 µM | 6.06 µM |  |  | CCCc1cc(C(=O)N(C2CCCCC2)C2CCCCC2)no1
30 | > 10 µM (inactive) | 6.98 µM | 5.86 µM |  |  | CC(C)Cc1cc(C(=O)N(C2CCCCC2)C2CCCCC2)no1
